Experimental data reported in ChEMBL document CHEMBL3885861, “Open TG-GATES”.

Species: Rattus norvegicus
Experiment: Open TG-GATES - Regimen: Single
Format: toxicity, organism-based, Sprague-Dawley
Set-up: regimen Single, gender Male, age 6 weeks
Settings: in vivo, po, 45 mg/kg, route gavage, dose level High; for APTT / Bas / Eos / Fbg / Hb / Ht / Lym / MCH / MCHC / MCV / Mono / Neu / PT / Plat / RBC / Ret / WBC: tissue Blood; for KIDNEY_L / KIDNEY_R / KIDNEY_TOTAL: tissue Kidney; for LIVER: tissue Liver; for A/G / ALP / ALT / AST / BUN / CRE / Ca / Cl / DBIL / GLC / IP / K / LDH / Na / PL / RALB / TBIL / TC / TG / TP / gamma-GTP: tissue Plasma

CC(=N)S [THIOACETAMIDE]
TERMINAL_BW (3 h): 189.5 g | APTT (3 h): 17.3 s | Bas (3 h): 0% | Eos (3 h): 0.6% | Fbg (3 h): 232.5 mg/dL | Hb (3 h): 13.5 g/dL | Ht (3 h): 41% | Lym (3 h): 71.2% | MCH (3 h): 21.6 pg | MCHC (3 h): 33% | MCV (3 h): 65.4 fL | Mono (3 h): 8.6% | Neu (3 h): 20% | PT (3 h): 12.4 s | Plat (3 h): 115.5 x10_4/uL | RBC (3 h): 627 x10_4/ul | Ret (3 h): 9.5% | WBC (3 h): 129.7 x10_2/uL | KIDNEY_L (3 h): 0.8 g | KIDNEY_R (3 h): 0.8 g | KIDNEY_TOTAL (3 h): 1.7 g | LIVER (3 h): 8.7 g | A/G (3 h): 2 | ALP (3 h): 923 IU/L | ALT (3 h): 36 IU/L | AST (3 h): 73.6 IU/L | BUN (3 h): 13.6 mg/dL | CRE (3 h): 0.5 mg/dL | Ca (3 h): 10.9 mg/dL | Cl (3 h): 104.6 meq/L | DBIL (3 h): 0 mg/dL | GLC (3 h): 169.2 mg/dL | IP (3 h): 9.7 mg/dL | K (3 h): 4.4 meq/L | LDH (3 h): 200.6 IU/L | Na (3 h): 139.6 meq/L | PL (3 h): 137.6 mg/dL | RALB (3 h): 3.8 g/dL | TBIL (3 h): 0.4 mg/dL | TC (3 h): 84 mg/dL | TG (3 h): 54.8 mg/dL | TP (3 h): 5.6 g/dL | gamma-GTP (3 h): 2 IU/L | TERMINAL_BW (6 h): 187 g | APTT (6 h): 17.2 s | Bas (6 h): 0% | Eos (6 h): 0.2% | Fbg (6 h): 230.4 mg/dL | Hb (6 h): 13.7 g/dL | Ht (6 h): 41.3% | Lym (6 h): 71% | MCH (6 h): 21.8 pg | MCHC (6 h): 33.1% | MCV (6 h): 66 fL | Mono (6 h): 6.2% | Neu (6 h): 22.2% | PT (6 h): 12.9 s | Plat (6 h): 104.7 x10_4/uL | RBC (6 h): 627.2 x10_4/ul | Ret (6 h): 9.9% | WBC (6 h): 118 x10_2/uL | KIDNEY_L (6 h): 0.8 g | KIDNEY_R (6 h): 0.8 g | KIDNEY_TOTAL (6 h): 1.6 g | LIVER (6 h): 8 g | A/G (6 h): 1.9 | ALP (6 h): 836.6 IU/L | ALT (6 h): 33.8 IU/L | AST (6 h): 75.2 IU/L | BUN (6 h): 10.2 mg/dL | CRE (6 h): 0.6 mg/dL | Ca (6 h): 10.4 mg/dL | Cl (6 h): 104.4 meq/L | DBIL (6 h): 0.024 mg/dL | GLC (6 h): 162.4 mg/dL | IP (6 h): 9.9 mg/dL | K (6 h): 4.7 meq/L | LDH (6 h): 155.4 IU/L | Na (6 h): 138.2 meq/L | PL (6 h): 129.8 mg/dL | RALB (6 h): 3.6 g/dL | TBIL (6 h): 0.4 mg/dL | TC (6 h): 79.4 mg/dL | TG (6 h): 34.8 mg/dL | TP (6 h): 5.5 g/dL | gamma-GTP (6 h): 1.8 IU/L | TERMINAL_BW (9 h): 189.4 g | APTT (9 h): 17 s | Bas (9 h): 0% | Eos (9 h): 0.6% | Fbg (9 h): 224.4 mg/dL | Hb (9 h): 13.1 g/dL | Ht (9 h): 39.6% | Lym (9 h): 71% | MCH (9 h): 21.8 pg | MCHC (9 h): 33% | MCV (9 h): 66 fL | Mono (9 h): 7.4% | Neu (9 h): 21% | PT (9 h): 14.1 s | Plat (9 h): 100.8 x10_4/uL | RBC (9 h): 600 x10_4/ul | Ret (9 h): 10% | WBC (9 h): 126.2 x10_2/uL | KIDNEY_L (9 h): 0.8 g | KIDNEY_R (9 h): 0.9 g | KIDNEY_TOTAL (9 h): 1.7 g | LIVER (9 h): 8 g | A/G (9 h): 2 | ALP (9 h): 886 IU/L | ALT (9 h): 41.2 IU/L | AST (9 h): 93.2 IU/L | BUN (9 h): 12.6 mg/dL | CRE (9 h): 0.5 mg/dL | Ca (9 h): 10.4 mg/dL | Cl (9 h): 104.6 meq/L | DBIL (9 h): 0.008 mg/dL | GLC (9 h): 168.4 mg/dL | IP (9 h): 10.4 mg/dL | K (9 h): 4.4 meq/L | LDH (9 h): 229.2 IU/L | Na (9 h): 137.4 meq/L | PL (9 h): 134.8 mg/dL | RALB (9 h): 3.6 g/dL | TBIL (9 h): 0.4 mg/dL | TC (9 h): 84.8 mg/dL | TG (9 h): 32.4 mg/dL | TP (9 h): 5.4 g/dL | gamma-GTP (9 h): 1.8 IU/L | TERMINAL_BW (24 h): 186.6 g | APTT (24 h): 21.2 s | Bas (24 h): 0% | Eos (24 h): 0.6% | Fbg (24 h): 232 mg/dL | Hb (24 h): 14.7 g/dL | Ht (24 h): 44.9% | Lym (24 h): 69.8% | MCH (24 h): 21.2 pg | MCHC (24 h): 32.8% | MCV (24 h): 64.6 fL | Mono (24 h): 1.8% | Neu (24 h): 27.8% | PT (24 h): 15.7 s | Plat (24 h): 104.8 x10_4/uL | RBC (24 h): 695.6 x10_4/ul | Ret (24 h): 9% | WBC (24 h): 91 x10_2/uL | KIDNEY_L (24 h): 0.9 g | KIDNEY_R (24 h): 0.9 g | KIDNEY_TOTAL (24 h): 1.8 g | LIVER (24 h): 9.3 g | A/G (24 h): 2 | ALP (24 h): 1017.6 IU/L | ALT (24 h): 137.2 IU/L | AST (24 h): 713.8 IU/L | BUN (24 h): 15.2 mg/dL | CRE (24 h): 0.5 mg/dL | Ca (24 h): 10.4 mg/dL | Cl (24 h): 102.4 meq/L | DBIL (24 h): 0.046 mg/dL | GLC (24 h): 152 mg/dL | IP (24 h): 8.5 mg/dL | K (24 h): 4.7 meq/L | LDH (24 h): 1117 IU/L | Na (24 h): 135.8 meq/L | PL (24 h): 142 mg/dL | RALB (24 h): 3.8 g/dL | TBIL (24 h): 0.3 mg/dL | TC (24 h): 86.8 mg/dL | TG (24 h): 64.6 mg/dL | TP (24 h): 5.8 g/dL | gamma-GTP (24 h): 1 IU/L
